{"source": "paper PMC8491563", "about": "(Journal of controlled release : official journal of the …, 2020)", "origin": "cited, not measured here", "tested_on": "CCR2", "details": "in conjunction with nab-paclitaxel/gemcitabine, 21 treated patients"}
{"molecule": "O=C(NCC(=O)N1CC[C@H](N[C@H]2CC[C@@](O)(c3ccc(-c4ncccn4)cn3)CC2)C1)c1cccc(C(F)(F)F)c1", "note": "[PF-04136309]", "values": [{"measurement": "patients responding with a reduction in tumor size compared to the baseline", "result": 23.8, "unit": "%"}]}
